Key:
isolated rabbit heart [1] = test: reversal of sustained electrically induced ventricular fibrillation, isolated rabbit heart (Langendorff preparation); settings: added to perfusate
Method: The thorax was rapidly opened by middle-sized incision, and the sternum beaten back for complete exposure of the inside of the thorax. […] A metallic cannula was then inserted and fixed to the proximal portion of the aorta, retrograde perfusion of oxygenated Krebs-Henseleit solution was initiated and heated up to 37° C. with constant flow of 13 mL/minute, kept by a continuous-infusion pump, Harvard Apparatus model RS232. The cannula tip was positioned quite close to the aortic valve to permit adequate coronary perfusion.
The heart was then removed and suspended through the cannula in a classic Langenhorff preparation. The Krebs Henseleit composition used was: 115 mM NaCl; 5.4 mM KCL; 1.25 mM CaCl2; 25 mM NaHCO3; 1.2 mM MgSO4; 1.5 mM NaH2PO4 and 11 nM glucose. […]

isolated rabbit heart [2] = test: re-induction of ventricular fibrillation after reversal (protective effect), isolated rabbit heart; settings: new attempt to induce ventricular fibrillation 5 minutes after reversal
Method: In order to carry out the experiments, twenty-seven male and female white New Zealand rabbits, weighing 2.5-3.5 kg, received 100 Ul/kg of intravenous heparin and were killed by cervical displacement.
The thorax was rapidly opened by middle-sized incision, and the sternum beaten back for complete exposure of the inside of the thorax. The pericardium was removed and the rising part of the aorta was isolated and repaired with a cotton thread 3-0. A metallic cannula was then inserted and fixed to the proximal portion of the aorta, retrograde perfusion of oxygenated Krebs-Henseleit solution was initiated and heated up to 37° C. with constant flow of 13 mL/minute, kept by a continuous-infusion pump, Harvard Apparatus model RS232. The cannula tip was positioned quite close to the aortic valve to permit adequate coronary perfusion.
The heart was then removed and suspended through the cannula in a classic Langenhorff preparation. […]
Two pairs of electrodes (Monicron 2-O) were saturated on the LV: one at the tip, called proximal (P) and the other at the branching of front descending coronary artery branching with the first diagonal, called distal (D). […] The cardiac frequency was determined by measuring the interval between two consecutive electrograms and transformed into beats per minute (bpm). […]

Compound | reversal of sustained ventricular fibrillation (in words) (isolated rabbit heart [1]) | prevention of re-induction of ventricular fibrillation by electric stimulus (isolated rabbit heart [2])
CCCCc1oc2ccccc2c1C(=O)c1cc(I)c(OCCN(CC)CC)c(I)c1 [amiodarone] | do not have any effect | –
CCN(CC)CC(=O)Nc1c(C)cccc1C [lidocain] | – | does not prevent the reinduction
CC(C)NCC(O)COc1cccc2ccccc12 (stereo not drawn) [propranolol] | do not have any effect | –
